Data: US7998926B2, “Dimerized T-cell receptor fragment, its compositions and use” (The Arizona Boad of Regents on Behfl of the University of …, priority 2001, dated 2011)
Positions of bridges follow the written chain, without caps; N, C: chain ends. Chains are numbered I, II in the order given. No end group written: not given here.

Assays:
LP-BM5 retrovirus = assay: Spleen weight in LP-BM5 retrovirus-infected mice; type: in vivo, C57BL/6 mice; conditions: 200 μg peptide intraperitoneally two and six weeks after infection, relative to untreated infected animals
Text: FIG. 1. Spleen weight. The spleen weights were substantially (p<0.05) elevated in the infected mice relative to the uninfected animals. […] “a” indicates significant differences at p<0.05 compared with uninfected saline treatment.
(§1) Female C57BL/6 mice, four weeks old, were obtained from the Charles River Laboratories Inc. (Wilmington, Del.). Animals were cared for as required by the University of Arizona Committee on Animal Research. After two weeks housing in the Central Animal Facility, University of Arizona, they were randomly assigned to one of the following treatment groups: uninfected normal mice (four mice); LP-BM5-infected mice treated with saline (pyrogen free; six mice); LP-BM5-infected mice treated with 200 μg TCR Vβ3 monomer peptide (six mice); LP-BM5-infected mice treated with 200 μg TCR Vβ3 dimer peptide (six mice). […] Intraperitoneal administration of monomer and dimer peptides (dissolved in saline) was performed two and six weeks after LP-BM5 infection. Infection to of these mice with LP-BM5 retrovirus leads to the rapid induction of clinical symptoms with virtually no latent phase.

splenocyte T cells = assay: Con A-stimulated splenocyte proliferation (T cells) of LP-BM5-infected mice; type: in vivo, C57BL/6 mice; conditions: 200 μg/mouse, vs infected saline group
Text: FIG. 2. Con A-stimulated splenocyte proliferation. […] “a” indicates significant differences at p<0.05 compared with uninfected saline treatment group. “b” indicates significant differences at p<0.05 compared with infected saline treatment group.
as §1

splenocyte B cells = assay: LPS-stimulated splenocyte proliferation (B cells) of LP-BM5-infected mice; type: in vivo, C57BL/6 mice; conditions: 200 μg/mouse, vs infected saline group
Text: FIG. 3. LPS-stimulated splenocyte proliferation. […] “a” indicates significant differences at p<0.05 compared with uninfected saline treatment group. “b” indicates significant differences at […] compared with infected saline treatment group.
as §1

IL-2 = IL-2 production of splenocyte of LP-BM5-infected mice; type: in vivo, C57BL/6 mice; conditions: 200 μg/mouse, vs infected saline group
Text: FIG. 4. IL-2 production of splenocyte. […] “a” indicates significant differences at p<0.05 compared with uninfected saline treatment group. “b” indicates significant differences at p<0.05 compared with infected saline treatment group.
as §1

IFN-γ = IFN-γ production of splenocyte of LP-BM5-infected mice; type: in vivo, C57BL/6 mice; conditions: 200 μg/mouse, vs infected saline group
Text: FIG. 5. IFN-γ production of splenocyte. […] “a” indicates significant differences at P <0.05 compared with uninfected saline treatment group. “b” indicates significant differences at P<0.05 compared with infected saline treatment group.
as §1

IL-6 = assay: Interleukin-6 production of splenocyte of LP-BM5-infected mice; type: in vivo, C57BL/6 mice; conditions: 200 μg/mouse, mitogen-stimulated splenocytes, vs infected saline group
Text: FIG. 7. Interleukin-6 production of splenocyte. […] “a” indicates significant differences at p<0.05 compared with uninfected saline treatment group. “b” indicates significant differences at p<0.05 compared with infected saline treatment group.
as §1

aged mice = conditions: injection of peptide, not highly dimerised; cited from earlier work
[1] = Immunomodulatory effects of homologs of the β3 peptide
IL-4 = assay: Interleukin-4 production of splenocyte of LP-BM5-infected mice; type: in vivo, C57BL/6 mice; conditions: 200 μg/mouse, mitogen-stimulated splenocytes, vs infected saline group
Text: FIG. 6. Interleukin-4 production of splenocyte. […] “a” indicates significant differences at P<0.05 compared with uninfected saline treatment group, “b” indicates significant differences at P<0.05 compared with infected saline treatment group.
as §1

Row | Substance | Spleen weight (splenomegaly) (LP-BM5 retrovirus) | Con A-stimulated splenocyte proliferation (T-cell proliferation) (splenocyte T cells) | LPS-stimulated splenocyte proliferation (B cell proliferation) (splenocyte B cells) | IL-2 production of splenocyte (IL-2) | IFN-γ production of splenocyte (IFN-γ) | Interleukin-6 production of splenocyte (IL-6) | Immunosenescence (aged mice) | Immunomodulatory effects compared with the β3 peptide [1] | Spleen weight (splenomegaly) (LP-BM5 retrovirus; listed as Vβ3 peptide dimers) | Con A-stimulated splenocyte proliferation (T-cell proliferation) (splenocyte T cells; listed as Vβ3 peptide dimers) | LPS-stimulated splenocyte proliferation (B cell proliferation) (splenocyte B cells; listed as Vβ3 peptide dimers) | IFN-γ production of splenocyte (IFN-γ; listed as Vβ3 peptide dimers) | Interleukin-4 production of splenocyte (IL-4) | Interleukin-4 production of splenocyte (IL-4; listed as Vβ3 peptide dimers)
1 | CKPISGHNSLFWYRQT [TCR Vβ3 monomer, 16-mer TCR Vβ CDR1 peptide of T-cell receptor β chain clone YT35, monomer form, reference compound] | significant reduction in spleen weight | significantly (p<0.05) prevented the suppression of T-cell proliferation | significantly (p<0.05) prevented the suppression of T-cell proliferation | significantly (p<0.05) normalized IL-2 production | significantly (p<0.05) normalized IFN-γ production | significantly (p<0.05) normalized IL-6 | reduces immunosenescence in aged mice |  |  |  |  |  |  | 
2 | C S P K S G H D T V S W Y Q Q A (CSPKSGHDTVSWYQQA) [Pep Vβ5.2] |  |  |  |  |  |  |  | Active |  |  |  |  |  | 
3 | TCR Vβ3 dimer: homodimer of two SEQ ID NO:1 peptide monomers, formed through a disulphide bond at the N-terminal cysteine (chain 1 CKPISGHNSLFWYRQT; chain 2 CKPISGHNSLFWYRQT; disulfide I:1-II:1) | significant reduction in spleen weight | significantly (p<0.05) prevented the suppression of T-cell proliferation | significantly (p<0.05) prevented the suppression of T-cell proliferation |  | significantly (p<0.05) normalized IFN-γ production | at least as effective as the monomer |  |  | at least as effective as the monomer | at least as effective as the monomer | at least as effective as the monomer | at least as effective as the monomer | significantly (p<0.05) normalized IL-4 | at least as effective as the monomer
